# Results from patent publication US7235379B2, “Method and medium for the detection/identification of microorgranisms with esterase activity” (Bio Merieux, priority 2000, dated 2007).
# Counter-ions that a name gives are not always drawn.
# Tests used:
# Format in all cases: cell-based
# [1] = tested on: Pseudomonas aeruginosa 165; experiment: Ex.3 colony coloration, 5-bromo-4-chloro-3-indolyl nonanoate 250 mg/l, DMSO/Tween 20; note: key: 0: no activity; 0.1: trace of coloration; 0.5: very pale coloration; 1: distinct coloration of low intensity; 2: clear coloration of medium intensity; 3: intense coloration; 4: very intense coloration
# Experimental: (§1) The esterase substrate tested is 5-bromo-4-chloro-3-indolyl nonanoate. A 40 g/l stock solution of substrate is prepared in a mixture of 40% dimethyl sulfoxide and 60% Tween 20. A sufficient volume is added to a supercooled MacConkey medium (without neutral red) to give a substrate concentration of 250 mg/l.
# (§2) Microorganisms originating from the Applicant's collection were inoculated onto this medium from a 0.5 McFarland suspension by isolation in three quadrants. The dishes were incubated at 37° C. for 48 hours. The colonies formed were examined visually after 24 and 48 hours of incubation. The coloration of these colonies and the intensity of this coloration were noted.
# (§3) The intensity of coloration corresponds to an arbitrary scale defined as follows:
# Salmonella arizonae 018 = experiment: Ex.4 colony coloration, 5-bromo-3-indolyl nonanoate, DMSO/Tween 20, MacConkey; settings: 8 ml/l Tergitol 4; for intensity of coloration: key: 0: no activity; 0.1: trace of coloration; 0.5: very pale coloration; 1: distinct coloration of low intensity; 2: clear coloration of medium intensity; 3: intense coloration; 4: very intense coloration
# [2] = tested on: Salmonella typhimurium 010; experiment: Ex.2 colony coloration, 5-bromo-3-indolyl nonanoate, methanol/bile salts, MacConkey; for intensity of coloration: key: 0: no activity; 0.1: trace of coloration; 0.5: very pale coloration; 1: distinct coloration of low intensity; 2: clear coloration of medium intensity; 3: intense coloration; 4: very intense coloration
# Experimental: The esterase substrate tested is 5-bromo-3-indolyl nonanoate. A 25 g/l stock solution of substrate is prepared in methanol to which 5 g/l of bile salts have been added. A sufficient volume is added to a supercooled MacConkey medium (without neutral red) to give a substrate concentration of 500 mg/l.
# as §2, §3
# [3] = tested on: Listeria monocytogenes 079; experiment: Ex.3 colony coloration, 5-bromo-4-chloro-3-indolyl nonanoate 250 mg/l, DMSO/Tween 20; note: key: 0: no activity; 0.1: trace of coloration; 0.5: very pale coloration; 1: distinct coloration of low intensity; 2: clear coloration of medium intensity; 3: intense coloration; 4: very intense coloration
# Experimental: as §1, §2, §3
compound,measurement,setting,value
"CCCCC(CC)CCC(CC(C)C)OS(=O)(=O)O (stereo not shown) [Tergitol 4, 7-ethyl-2-methyl-4-undecanoate hydrogensulfate or its sodium salt]",intensity of coloration,"[1]; 0.001 ml/l, 24 h",0.1
same,intensity of coloration,"[1]; 0.001 ml/l, 48 h",0.5
same,intensity of coloration,"[1]; 0.01 ml/l, 24 h",0.5
same,intensity of coloration,"[1]; 0.01 ml/l, 48 h",1
same,intensity of coloration,"[1]; 0.1 ml/l, 24 h",0.1
same,intensity of coloration,"[1]; 0.1 ml/l, 48 h",0.5
same,intensity of coloration,"[1]; 1 ml/l (1st col), 24 h",0.5
same,intensity of coloration,"[1]; 1 ml/l (1st col), 48 h",0.5
same,intensity of coloration,"[1]; 1 ml/l (2nd col), 24 h",0.5
same,intensity of coloration,"[1]; 1 ml/l (2nd col), 48 h",1
same,color,Salmonella arizonae 018; 24 h,gray
same,intensity of coloration,Salmonella arizonae 018; 24 h,3.5
same,color,Salmonella arizonae 018; 48 h,gray
same,intensity of coloration,Salmonella arizonae 018; 48 h,3.5
same,color,"[2]; 2 ml/l, 24 h",gray
same,intensity of coloration,"[2]; 2 ml/l, 24 h",2
same,color,"[2]; 2 ml/l, 48 h",gray
same,intensity of coloration,"[2]; 2 ml/l, 48 h",2
same,color,"[2]; 4 ml/l, 24 h",gray
same,intensity of coloration,"[2]; 4 ml/l, 24 h",2
same,color,"[2]; 4 ml/l, 48 h",gray
same,intensity of coloration,"[2]; 4 ml/l, 48 h",3
same,color,"[2]; 8 ml/l, 24 h",gray
same,intensity of coloration,"[2]; 8 ml/l, 24 h",3
same,color,"[2]; 8 ml/l, 48 h",gray
same,intensity of coloration,"[2]; 8 ml/l, 48 h",3
same,color,"[2]; 16 ml/l, 24 h",gray
same,intensity of coloration,"[2]; 16 ml/l, 24 h",3
same,color,"[2]; 16 ml/l, 48 h",gray
same,intensity of coloration,"[2]; 16 ml/l, 48 h",3.5
same,intensity of coloration,"[3]; 0.001 ml/l, 24 h",2
same,intensity of coloration,"[3]; 0.001 ml/l, 48 h",3
same,intensity of coloration,"[3]; 0.01 ml/l, 24 h",3
same,intensity of coloration,"[3]; 0.01 ml/l, 48 h",3
same,intensity of coloration,"[3]; 0.1 ml/l, 24 h",2
same,intensity of coloration,"[3]; 0.1 ml/l, 48 h",3
same,intensity of coloration,"[3]; 1 ml/l (1st col), 24 h",2
same,intensity of coloration,"[3]; 1 ml/l (1st col), 48 h",3
same,intensity of coloration,"[3]; 1 ml/l (2nd col), 24 h",2
same,intensity of coloration,"[3]; 1 ml/l (2nd col), 48 h",3
